Experimental data reported in US20210147381A1, “1,2,3,4-SUBSTITUTED QUINOLINE COMPOUNDS AS SIP MODULATORS” (AbbVie Deutschland GmbH & Co. KG, priority 2017, published 2021).
Counter-ions that a name gives are not always drawn.

Key:
Assay type in all cases: cell-based
[1] = biological target: T1, human S1P5 receptor (S1PR5) (Homo sapiens, UniProt Q9H228); test: Intracellular Ca2+ release (method 1), agonist potency and efficacy, S1P5; settings: for Emax: maximum effect in % of reference agonist phospho-fingolimod (100%), read-out: hS1P5 EMax; for EC50: recombinant CHO-K1 cells expressing human S1PR5, aequorin, Gq/i5, Ca2+ release, read-out: S1P5 EC50 range
T1 construct: host or cells: CHO-K1
Protocol: (§1) Agonistic activity and efficacy of compounds was assessed in recombinant cells using method 1 described below.
(§2) Agonist potency and efficacy were assessed by measurement of intracellular Ca^2+ release. Recombinant CHO-K1 cells (Euroscreen, Brussels, Belgium) expressing human S1PR5, S1PR1, S1PR3 or S1PR4 receptors, aequorin, and GTP binding protein Gq/i5 were cultured using a medium containing nutrient mixture F-12 Ham (Sigma-Aldrich) with 10% FBS, and 100 μg/mL gentamicin and equilibrated at 5% CO2.
(§3) 15,000 cells in 20 μL medium were seeded into Biocoat poly-D-Lysine coated 384 well plates (Becton Dickinson #35-6663) and grown to 95% confluency after 24 h.
(§4) Culture medium was replaced by an assay buffer consisting of HBBS with Ca^2+ and Mg^2+ (Invitrogen #14025-050), 20 mmol/L Hepes (Sigma-Aldrich #H-3375), 2.5 mmol/L probenecid (Sigma-Aldrich #P-8761, and 0.1% BSA (Sigma-Aldrich #A-7030) pH 7.4. The Calcium 5 no-wash FLIPR assay kit (Molecular Devices #5000625) was performed as described in the kit instructions. Cells were incubated with Calcium 5 dye for 1 h at 37° C., 5% CO2 in the dark. After 45 min adaptation to RT assessment of agonist stimulation of intracellular Ca^2+ release was performed by addition of test compounds at various concentrations obtained by serial dilution. Phospho-fingolimod was used as positive control and reference agonist (intrinsic activity 100%).
(§5) Agonism of test compounds at the human S1Px receptors were characterized by the EC50 values (potencies) deduced from a nonlinear 4 parametric logistic curve fit to the measured fluorescence data after normalization to the lower and upper plateaus of the fitted reference agonist's (phospho-fingolimod)effect curve and by their efficacy (Emax) values represented by their maximum achievable effects in % of the reference agonist's efficacy, which is defined as an Emax of 100%.

[2] = biological target: T2, human S1P3 receptor (S1PR3) (Homo sapiens, UniProt Q99500); test: Intracellular Ca2+ release (method 1), agonist potency, S1P3; settings: CHO-K1 cells expressing human S1PR3
T2 construct: host or cells: CHO-K1
Protocol: as §1, §2, §3, §4, §5

[3] = biological target: T3, human S1P4 receptor (S1PR4) (Homo sapiens, UniProt O95977); test: Intracellular Ca2+ release (method 1), agonist potency, S1P4; settings: CHO-K1 cells expressing human S1PR4
T3 construct: host or cells: CHO-K1
T3 sequence (O95977 1-384): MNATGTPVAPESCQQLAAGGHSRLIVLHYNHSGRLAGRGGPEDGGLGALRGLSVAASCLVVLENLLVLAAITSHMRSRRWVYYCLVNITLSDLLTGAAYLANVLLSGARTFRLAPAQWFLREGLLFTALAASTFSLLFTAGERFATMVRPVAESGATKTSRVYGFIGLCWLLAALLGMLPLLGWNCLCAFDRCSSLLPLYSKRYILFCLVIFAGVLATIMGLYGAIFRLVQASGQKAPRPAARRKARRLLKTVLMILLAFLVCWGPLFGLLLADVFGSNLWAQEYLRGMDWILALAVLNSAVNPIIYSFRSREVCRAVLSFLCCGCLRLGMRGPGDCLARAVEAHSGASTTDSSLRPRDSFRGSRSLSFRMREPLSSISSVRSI
Protocol: as §1, §2, §3, §4, §5

[4] = biological target: T4, human S1P1 receptor (S1PR1) (Homo sapiens, UniProt P21453); test: Intracellular Ca2+ release (method 1), agonist potency, S1P1; settings: CHO-K1 cells expressing human S1PR1
T4 construct: host or cells: CHO-K1
Protocol: as §1, §2, §3, §4, §5

T4 sequence (P21453 whole entry): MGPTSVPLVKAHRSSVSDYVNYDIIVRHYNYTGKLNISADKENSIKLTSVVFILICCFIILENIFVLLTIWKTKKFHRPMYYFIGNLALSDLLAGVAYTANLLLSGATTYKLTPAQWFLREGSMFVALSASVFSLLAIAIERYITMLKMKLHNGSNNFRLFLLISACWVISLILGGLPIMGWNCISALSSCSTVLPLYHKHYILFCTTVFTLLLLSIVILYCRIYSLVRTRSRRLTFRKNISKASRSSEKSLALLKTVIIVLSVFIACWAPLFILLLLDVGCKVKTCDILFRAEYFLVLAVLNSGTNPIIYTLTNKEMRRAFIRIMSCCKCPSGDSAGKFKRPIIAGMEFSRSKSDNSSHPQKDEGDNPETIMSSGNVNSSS
T1 sequence (Q9H228 whole entry): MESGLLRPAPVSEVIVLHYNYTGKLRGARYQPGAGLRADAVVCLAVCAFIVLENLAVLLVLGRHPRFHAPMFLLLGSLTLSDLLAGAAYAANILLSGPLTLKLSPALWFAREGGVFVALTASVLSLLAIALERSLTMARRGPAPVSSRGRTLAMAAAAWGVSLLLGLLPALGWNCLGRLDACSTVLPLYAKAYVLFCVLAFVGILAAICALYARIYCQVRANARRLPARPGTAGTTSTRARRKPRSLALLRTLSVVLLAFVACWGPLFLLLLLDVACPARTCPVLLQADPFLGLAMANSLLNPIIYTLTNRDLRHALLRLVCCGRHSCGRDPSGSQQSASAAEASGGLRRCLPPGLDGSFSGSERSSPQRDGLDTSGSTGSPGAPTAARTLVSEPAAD
T2 sequence (Q99500 whole entry): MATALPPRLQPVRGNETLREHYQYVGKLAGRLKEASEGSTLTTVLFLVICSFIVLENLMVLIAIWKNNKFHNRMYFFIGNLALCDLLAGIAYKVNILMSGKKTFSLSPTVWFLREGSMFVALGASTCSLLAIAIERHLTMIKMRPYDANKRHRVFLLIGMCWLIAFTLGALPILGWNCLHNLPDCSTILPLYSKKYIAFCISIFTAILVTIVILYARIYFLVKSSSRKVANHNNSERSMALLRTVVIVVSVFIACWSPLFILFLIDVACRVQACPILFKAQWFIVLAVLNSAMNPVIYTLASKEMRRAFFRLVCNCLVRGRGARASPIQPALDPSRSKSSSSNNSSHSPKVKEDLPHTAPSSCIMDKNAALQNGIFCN

SMILES | Emax [1] [%] | EC50 [1] [nM] | EC50 [2] [nM] | EC50 ([3]; cells given as bound) [nM] | EC50 ([4]; cells given as bound) [nM] | EC50 [4] [nM] | EC50 [3] [nM]
CCCn1cc(C#Cc2ccc3c(c2)C2(CC2)CN(CCC(=O)O)C3)cn1 [Compound 42, 3-(6′-((1-propyl-1H-pyrazol-4-yl)ethynyl)-1′H-spiro[cyclopropane-1,4′-isoquinolin]-2′(3′H)-yl)propanoic acid acetic acid salt (1:1)] | 50 to 100 | 1000 to 10000 | > 1000 | > 1000 | > 1000 |  | 
CCOc1ccc(C#Cc2ccc3c(c2)C2(CC2)CN(CCCC(=O)O)C3)cc1 [Compound 3, 2′-(3-carboxypropyl)-6′-((4-ethoxyphenyl)ethynyl)-2′,3′-dihydro-1′H-spiro[cyclopropane-1,4′-isoquinolin]-2′-ium 2,2,2-trifluoroacetate] | 50 to 100 | < 10 | > 1000 | > 1000 |  | 100 to 1000 | 
O=C(O)CCCN1Cc2ccc(OCc3cccc(F)c3)cc2C2(CC2)C1 [Compound 23, 4-(6′-((3-Fluorobenzyl)oxy)-1′H-spiro[cyclopropane-1,4′-isoquinolin]-2′(3′H)-yl)butanoic acid] | 50 to 100 | 10 to 100 | > 1000 | > 1000 | > 1000 |  | 
O=C(O)CCCN1Cc2ccc(C#Cc3ccc(OC(F)(F)F)cc3)cc2C2(CC2)C1 [Compound 48, 4-(6′-((4-(trifluoromethoxy)phenyl)ethynyl)-1′H-spiro[cyclopropane-1,4′-isoquinolin]-2′(3′H)-yl)butanoic acid] | 50 to 100 | 10 to 100 | > 1000 | > 1000 | > 1000 |  | 
O=C(O)CCN1Cc2ccc(C#Cc3cccc(Cl)c3)cc2C2(CC2)C1 [Compound 33, 3-(6′-((3-chlorophenyl)ethynyl)-1′H-spiro[cyclopropane-1,4′-isoquinolin]-2′(3′H)-yl)propanoic acid acetic acid salt (1:1)] | < 50 | < 10 | > 1000 |  | > 1000 |  | < 10
CCOc1ccc(C#Cc2ccc3c(c2)C2(CC2)CN(CCC(=O)O)C3)cc1 [Compound 34, 3-(6′-((4-ethoxyphenyl)ethynyl)-1′H-spiro[cyclopropane-1,4′-isoquinolin]-2′(3′H)-yl)propanoic acid acetic acid salt (1:1)] | 50 to 100 | < 10 | > 1000 | > 1000 | > 1000 |  | 
CC(C)Oc1ccc(C#Cc2ccc3c(c2)C2(CC2)CN(CCCC(=O)O)C3)cn1 [Compound 2, 4-(6′-((6-isopropoxypyridin-3-yl)ethynyl)-1′H-spiro[cyclopropane-1,4′-isoquinolin]-2′(3′H)-yl)butanoic acid] | 50 to 100 | < 10 | > 1000 | > 1000 | > 1000 |  | 
O=C(O)CCN1Cc2ccc(C#Cc3c(F)cccc3F)cc2C2(CC2)C1 [Compound 36, 3-(6′-((2,6-difluorophenyl)ethynyl)-1′H-spiro[cyclopropane-1,4′-isoquinolin]-2′(3′H)-yl)propanoic acid acetic acid salt (1:1)] | 50 to 100 | < 10 | > 1000 |  | > 1000 |  | 100 to 1000
O=C(O)CCCN1Cc2ccc(OCc3ccc(F)c(F)c3)cc2C2(CC2)C1 [Compound 18, 4-(6′-((3,4-Difluorobenzyl)oxy)-1′H-spiro[cyclopropane-1,4′-isoquinolin]-2′(3′H)-yl)butanoic acid] | < 50 | 10 to 100 | > 1000 |  | > 1000 |  | 100 to 1000
O=C(O)CCN1Cc2ccc(C#Cc3ccccc3)cc2C2(CC2)C1 [Compound 39, 3-(6′-(phenylethynyl)-1′H-spiro[cyclopropane-1,4′-isoquinolin]-2′(3′H)-yl)propanoic acid acetic acid salt (1:1)] | 50 to 100 | 100 to 1000 | > 1000 | > 1000 | > 1000 |  | 
O=C(O)CCCN1Cc2ccc(OCc3cccc(Cl)c3)cc2C2(CC2)C1 [Compound 24, 4-(6′-((3-Chlorobenzyl)oxy)-1′H-spiro[cyclopropane-1,4′-isoquinolin]-2′(3′H)-yl)butanoic acid] | 50 to 100 | < 10 | > 1000 |  | > 1000 |  | 100 to 1000
CC(C)Oc1ccc(C#Cc2ccc3c(c2)C2(CC2)CN(CCCC(=O)O)C3)cc1 [Compound 46, 4-(6′-((4-isopropoxyphenyl)ethynyl)-1′H-spiro[cyclopropane-1,4′-isoquinolin]-2′(3′H)-yl)butanoic acid] | > 100 | < 10 | > 1000 | > 1000 | > 1000 |  | 
O=C(O)CCCN1Cc2ccc(C#Cc3ccc(OC4CCCC4)cc3)cc2C2(CC2)C1 [Compound 44, 4-(6′-((4-(cyclopentyloxy)phenyl)ethynyl)-1′H-spiro[cyclopropane-1,4′-isoquinolin]-2′(3′H)-yl)butanoic acid] | > 100 | < 10 | > 1000 | > 1000 |  | 100 to 1000 | 

More lines, now with the values ahead:

Emax [1] [%] | EC50 [1] [nM] | EC50 [2] [nM] | EC50 ([3]; cells given as bound) [nM] | EC50 ([4]; cells given as bound) [nM] | EC50 [4] [nM] | EC50 [3] [nM] | SMILES
> 100 | < 10 | > 1000 |  | > 1000 |  | 10 to 100 | O=C(O)CCCN1Cc2ccc(OCc3c(Cl)cccc3Cl)cc2C2(CC2)C1 [Compound 15, 4-(6′-((2,6-Dichlorobenzyl)oxy)-1′H-spiro[cyclopropane-1,4′-isoquinolin]-2′(3′H)-yl)butanoic acid]
50 to 100 | < 10 | > 1000 | > 1000 | > 1000 |  |  | O=C(O)CCCN1Cc2ccc(OCc3ccccc3F)cc2C2(CC2)C1 [Compound 19, 4-(6′-((2-Fluorobenzyl)oxy)-1′H-spiro[cyclopropane-1,4′-isoquinolin]-2′(3′H)-yl)butanoic acid]
50 to 100 | < 10 | > 1000 |  | > 1000 |  | 100 to 1000 | CCc1cccc(Cl)c1COc1ccc2c(c1)C1(CC1)CN(CC(=O)O)C2 [Compound 13, 2-(6′-((2-Chloro-6-ethylbenzyl)oxy)-1′H-spiro[cyclopropane-1,4′-isoquinolin]-2′(3′H)-yl)acetic acid]
> 100 | < 10 | > 1000 | > 1000 | > 1000 |  |  | O=C(O)CCCN1Cc2ccc(C#Cc3ccc(OC(F)(F)F)c(F)c3)cc2C2(CC2)C1 [Compound 47, 4-(6′-((3-fluoro-4-(trifluoromethoxy)phenyl)ethynyl)-1′H-spiro[cyclopropane-1,4′-isoquinolin]-2′(3′H)-yl)butanoic acid]
50 to 100 | 10 to 100 | > 1000 |  | > 1000 |  | 100 to 1000 | Cc1ccccc1C#Cc1ccc2c(c1)C1(CC1)CN(CCC(=O)O)C2 [Compound 37, 3-(6′-(o-tolylethynyl)-1′H-spiro[cyclopropane-1,4′-isoquinolin]-2′(3′H)-yl)propanoic acid acetic acid salt (1:1)]
50 to 100 | 1000 to 10000 | > 1000 | > 1000 | > 1000 |  |  | Cc1cccnc1C#Cc1ccc2c(c1)C1(CC1)CN(CCC(=O)O)C2 [Compound 43, 3-(6′-((3-methylpyridin-2-yl)ethynyl)-1′H-spiro[cyclopropane-1,4′-isoquinolin]-2′(3′H)-yl)propanoic acid acetic acid salt (1:1)]
50 to 100 | 10 to 100 | > 1000 | > 1000 | > 1000 |  |  | O=C(O)CCN1Cc2ccc(C#Cc3ccsc3)cc2C2(CC2)C1 [Compound 38, 3-(6′-(thiophen-3-ylethynyl)-1′H-spiro[cyclopropane-1,4′-isoquinolin]-2′(3′H)-yl)propanoic acid]
